In patent US7098195B2, “Fluorinated glucosamine analogs useful for modulating post-translational glycosylations on cells” (Health Research, Inc., priority 2001, dated 2006):

How the values were obtained:
[1] = tested on: human ovarian, A121, tumor cells; details: cited from earlier work
[2] = tested on: HECA-452 epitopes on human hematopoietic KG1a cells; experiment: Flow cytometric analysis of HECA-452 epitopes on KG1a cells; assay type: cell-based
Text: (§1) In a similar set of experiments, we analyzed the effects of 4-F-GlcNAc on selectin ligand expression and function on the human hematopoietic cell line KGla. KGla cells express a distinct HECA-452-reactive CD44 glycoform that functions as both an E- and L-selectin ligand (Dimitroff, C. J. et al. (2001) J. Cell Biol., 53: 1277–1286; Dimitroff, C. J. et al. (2000) Proc. Nat. Acad. Sci., 97(25):13841–46; Sackstein, R. and Dimitroff, C. J. (2000) Blood, 96: 2765–74.), otherwise known as HCELL, respectively. This specialized glycoform represents a major E-selectin and the primary L-selectin ligand on normal CD34+ HPCs and on leukemic cells, and, therefore, is also implicated in the BM homing aspects and growth-related activities of HPCs in vivo, respectively (Id.). We first performed flow cytometric analysis of HECA-452 antigen and CD44 on 4-F-GlcNAc-treated KGla cells. […] Only positive cells, which were those cells with fluorescence above background autofluorescence and fluorochrome-conjugated secondary Ab staining, were analyzed.
(§2) Flow cytometric analysis was performed on human leukocytes utilizing both direct and indirect immunofluorescence staining approaches. All cells utilized for these experiments were washed twice with cold PBS/2%FBS and suspended at 10^7/ml PBS/1% FBS. Primary antibodies, anti-CLA (HECA-452), -CD4, -CD8, CD43 (L60) and PSGL-1 (PL-2) along with the appropriate isotype-matched control antibodies were incubated with the cells for 30 min on ice. Following two washes with PBS/2%FBS, cells were resuspended in PBS/1%FBS and fluorochrome-conjugated secondary antibodies (2 μl) and incubated for 30 min on ice. Cells were washed twice with PBS/2%FBS, resuspended in PBS and flow cytometry was performed on a FACScan apparatus equipped with an argon laser tuned at 488 nm (Becton Dickinson).

[3] = tested on: CD44 on human hematopoietic KG1a cells; experiment: Flow cytometric analysis of CD44 on KG1a cells; assay type: cell-based
Text: as §1, §2

[4] = tested on: panel of human tumor cell lines as well as normal endothelial cells; experiment: Growth inhibition (IC50) of human tumor cell lines and normal endothelial cells; assay type: cell-based; details: newly synthesized compounds compared with compounds synthesized by the original method
Text: Before conducting experiments with newly synthesized 3- and 4-F-GlcNAc the effects of 3- and 4-F-GlcNAc on the growth of a panel of human tumor cell lines as well as normal endothelial cells (i.e. IC50 values) were first determined and compared with the original growth inhibitory action (9 Bernacki, R. J. et al. (1977) J. Supra. Stru., 7:235–250; 10 Sharma, M. and W. Korytnyk (1980) Carbohyd. Res., 79:39–51;11 Sharma, M. et al. (1990). Carbohyd. Res., 198:205–22).

[5] = Toxicity (body weight, white cell counts, tolerability) in DTH mice; assay type: in vivo, mouse
Method: Thus, in these studies, a maximal dose of 250 mg/kg as well as 100 and […] doses were used in order to make both toxic and efficacy assessments of fluorinated hexosamine analog anti-inflammatory effects. To induce delayed type hypersensitivity (DTH), C57BL6 mice were sensitized on their abdomen on days 0 and 1 with 25 μl of 0.5% 2,4-dinitrofluorobenzene (DNFB) (i.e. hapten) in a 4:1 solution of acetone to olive oil (vehicle). Negative control mice were sensitized with vehicle alone. Mice were then treated from days 0–6 with drug vehicle (0.9% saline), 50 mg/kg 4-F-GlcNAc, 100 mg/kg 4-F-GlcNAc, 250 mg/kg 4-F-GlcNAc or 250 mg/kg GlcNAc (negative sugar control). Hapten-induced inflammation was then promoted on day 6 by challenging the mice with 10 μl of 0.25% DNFB on both sides of the right ear and mice also received 10 μl of vehicle alone on both sides of the left ear as a negative inflammatory control. Ear swelling responses were measured 24 h later on day 7 and subtracted from baseline measurements that were recorded on day 6.

[6] = previous studies; cited from earlier work
[7] = tested on: human colon HT-29 cancer cells; details: HT-29 cells; cited from earlier work
human CLA+ T-cells = experiment: Growth inhibition of human CLA+ T-cell cultures (Trypan-blue exclusion); assay type: cell-based
Method: To determine a suitable concentration of 4-F-GlcNAc for examining glycoconjugate-modifying effects without influencing cell growth or protein synthesis, we performed preliminary growth inhibitory experiments of cells incubated with 4-F-GlcNAc for 2 cell doublings (˜36 h) at 37° C. (cell viability assessed by Trypan-blue exclusion).

[8] = tested on: HCELL/CD44 activity on human hematopoietic KG1a cells; experiment: Stamper-Woodruff adhesion assay, L-selectin-dependent lymphocyte adherence to KG1a cells; assay type: cell-based; details: KG1a neuraminidase then recovery in 0.02 mM
[9] = KG1a neuraminidase then recovery in 0.05 mM
[10] = KG1a neuraminidase then recovery in 0.1 mM
[11] = KG1a neuraminidase then recovery in 0.5 mM

For `CC(=O)N[C@H]1C(OC(C)=O)O[C@H](COC(C)=O)[C@@H](F)[C@@H]1OC(C)=O` (stereo partly drawn) [4-F-GlcNAc, 2-acetamido-2-deoxy-1,3,6-tri-O-acetyl-4-deoxy-4-fluoro-D-glucopyranose], which “incorporation of radiolabeled sugar precursors” value [1] is on record?
The value was “conspicuous reductions”.

What about the “de novo re-expression of the HECA-452 epitopes on KG1a cells” value ([2]; 0.05, 0.1 or 0.5 mM after neuraminidase) of the same molecule?
Its value is “inhibited in a concentration-dependent manner”.

And the “HECA-452 Mean Channel Fluorescence” value [2, 9]?
Its value is 112.

And the “HECA-452 Mean Channel Fluorescence” value [2, 10]?
The value was 108.

What about the “HECA-452 Mean Channel Fluorescence” value [2, 11] of the same molecule?
Its value is 43.

What about the “CD44 % Positive Cell Staining” value [3, 9] of the same molecule?
Its value is 100%.

What about the “CD44 % Positive Cell Staining” value [3, 10] of the same molecule?
Its value is 100%.

And the “CD44 % Positive Cell Staining” value [3, 11]?
The value was 100%.

What about the “expression of CD44 on KG1a cells” value ([3]; even at 0.5 mM) of the same molecule?
Its value is “no reduction”.

What about the “IC50 values, growth of tumor cell lines and normal endothelial cells” value [4] of the same molecule?
Its value is “identical to those that were previously described”.

And the WBC counts ([5]; 50 mg/kg, days 0–6)?
The WBC counts was “did not affect”.

And the mouse body weight ([5]; 50 mg/kg, days 0–6)?
Its mouse body weight is “did not affect”.

What about the “reduction in body weight” value ([5]; 250 mg/kg, days 0–6) of the same molecule?
The value was roughly 5%.

And the “total white cell counts” value ([5]; 250 mg/kg, days 0–6)?
Its value is 60 % of drug controls.

And the tolerability ([5]; 250 mg/kg/d×6)?
The tolerability was “therapy-limiting”.

And the tolerability ([5]; 100 and 50 mg/kg/d×6 days)?
Its tolerability is “well-tolerated”.

What about the dose limiting toxicity [6] of the same molecule?
The dose limiting toxicity was roughly 250 mg/kg×6 days.

What about the “radiolabeled sugar incorporation into cell surface glycoproteins” value [7] of the same molecule?
Its value is “inhibition of radiolabeled glucosamine, fucose and galactose incorporation”.

And the “IC10 value (growth inhibition)” value (human CLA+ T-cells; 2 cell doublings (~36 h) at 37° C., Trypan-blue exclusion)?
The value was greater than 200 µM.

What about the “growth inhibitory effects on CLA+ T-cell cultures” value (human CLA+ T-cells; treated for 36 hr at concentrations less than 0.5 mM) of the same molecule?
Its value is “no inhibition of growth”.

For tunicamycin, which “% Inhibition (lymphocyte binding)” value [8] is on record?
The value was 99%.

And the “Mean Lymphocyte Binding” value [8]?
Its value is 3.0.
